US12679878B2, “CRF2 receptor agonists and their use in therapy” (SANOFI, priority 2020, dated 2026)
In brackets after ≈: the same amount, converted by molar mass. Starred links: 1 amine or outer side, 2 acyl side, 3 side chain; linkers in the order of their positions; H or OH if unused. Non-standard residues stand in square brackets, D forms with d. Residues, ends and D or L forms follow the SMILES beside them. Groups on a side chain read outwards from the residue. *: point of attachment. C18 diacid = O=C(O)CCCCCCCCCCCCCCCCC(=O)*; γGlu = O=C(O)[C@H](CCC(=O)[*:2])N[*:1]; Palmitoyl = CCCCCCCCCCCCCCCC(=O)*; AEEA = NCCOCCOCC(=O)O

Tests used:
rat CRF2R α receptor = experiment: cAMP agonism at rat CRF2R α receptor in A7R5 rat aortic smooth muscle cells (Example 8); type: cell-based; conditions: cAMP HTRF, A7R5 rat aortic smooth muscle cell line, 0% HSA
In short: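 Thawed cryopreserved A7R5 cells in HBSS/20 mM HEPES (0 or 0.1% HSA) with 2 mM IBMX, 2000 cells/well, were exposed to compound for 30 min at room temperature. cAMP was read by HTRF (665/620 nm ratio) after 1 h with lysis reagents. Activity was normalised to 1000 nM urocortin 2 as 100%, and EC50 was taken as the concentration giving 50% of maximal activation.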

[1] = Solubility in buffer systems by UPLC-UV (Example 13); type: physicochemical
Experimental: Prior to performing the solubility measurements, the purity of the compounds was determined through UPLC/MS. […] Therefore, solutions from solid samples were prepared in a buffer system with a concentration of 10 mg/mL compound based on the previously determined % purity.
UPLC-UV was performed after 1 hour of gentle agitation from the supernatant, which was obtained after 15 minutes of centrifugation at 2500 RCF (relative centrifugal acceleration). The solubility was determined by the comparison of the UV peak area of a 2 μL-injection of a buffered sample diluted 1:10 with a standard curve of a reference compound with known concentration. The different UV extinction coefficients of sample and reference compound were calculated based on the different amino acid sequences and considered in the concentration calculation.

human CRF2α receptor = molecular target: T1, human CRF2α receptor (Homo sapiens, UniProt Q13324); experiment: cAMP agonism at human CRF2 α receptor in TeloHEAC cells (Example 7); type: cell-based; conditions: cAMP HTRF, TeloHEAC cells stably expressing human CRF2 α, 0% HSA; read-out: EC50 [nM], 0% HSA
T1 construct: expressed in transfected cells; host or cells: TeloHEAC
T1 sequence (Q13324 1-411): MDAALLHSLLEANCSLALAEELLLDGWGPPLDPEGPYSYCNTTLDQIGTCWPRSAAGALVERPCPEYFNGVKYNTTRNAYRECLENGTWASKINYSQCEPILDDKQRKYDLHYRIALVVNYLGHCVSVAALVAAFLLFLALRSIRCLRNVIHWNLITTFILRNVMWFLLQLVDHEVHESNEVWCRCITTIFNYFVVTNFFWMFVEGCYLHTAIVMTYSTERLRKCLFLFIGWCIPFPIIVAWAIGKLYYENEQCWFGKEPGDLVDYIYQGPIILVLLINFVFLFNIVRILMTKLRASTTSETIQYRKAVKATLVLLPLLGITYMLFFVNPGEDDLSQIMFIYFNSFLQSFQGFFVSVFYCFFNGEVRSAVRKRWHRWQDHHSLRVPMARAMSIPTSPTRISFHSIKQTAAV
In short: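 Thawed frozen stably transfected cells in HBSS/20 mM HEPES (0% or 0.1% HSA) plus 2 mM IBMX were exposed to compound at 2000 cells/well for 30 min at room temperature. Intracellular cAMP was read by HTRF (665/620 nm ratio) after 1 h lysis; EC50 was derived with 1000 nM urocortin 2 set as 100%.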

CRF1R receptor = molecular target: T2, CRF1R receptor (Homo sapiens, UniProt P34998); experiment: cAMP activity at anti-target CRF1R, CRF1R-overexpression CHO cell line (Example 9); type: cell-based; conditions: CRF1R-overexpression CHO cell line; for EC50: 0% HSA; for Emax: read-out: Emax (%)
T2 construct: host or cells: CHO-K1 clone 2
T2 sequence (P34998 24-415): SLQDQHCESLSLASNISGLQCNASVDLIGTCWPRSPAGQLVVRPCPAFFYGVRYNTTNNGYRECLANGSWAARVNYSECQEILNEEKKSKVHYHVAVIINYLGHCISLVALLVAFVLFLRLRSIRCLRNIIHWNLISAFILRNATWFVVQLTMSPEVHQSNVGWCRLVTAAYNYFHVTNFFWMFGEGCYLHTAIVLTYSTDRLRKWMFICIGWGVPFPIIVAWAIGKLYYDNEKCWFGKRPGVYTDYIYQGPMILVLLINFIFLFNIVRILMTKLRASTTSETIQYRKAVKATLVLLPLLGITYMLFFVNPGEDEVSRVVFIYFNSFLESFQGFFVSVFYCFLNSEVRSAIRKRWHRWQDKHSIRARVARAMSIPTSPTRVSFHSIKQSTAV
In short: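 cAMP accumulation was read by HTRF after 30 min at room temperature of compound treatment. Cells were cryopreserved CHO cells overexpressing CRF1R, plated at 2000/well in IBMX (2 mM)-containing HBSS/HEPES buffer with 0 or 0.1% HSA. Activity was normalized to 1000 nM UCN2 as 100%.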

[2] = pH 7.4, Solubility in Buffer C [mg/ml]

SMILES	EC50 (rat CRF2R α receptor)	solubility at 1 h ([1]; pH 4.5, Solubility in Buffer A [mg/ml])	solubility at 1 h ([1]; pH 4.5, Solubility in Buffer B [mg/ml])	EC50 (human CRF2α receptor)	solubility at 1 h [1, 2]	EC50 (CRF1R receptor)	Emax (CRF1R receptor)
CCCCCCCCCCCCCCCC(=O)N[C@@H](CCC(=O)NCCCC[C@H](NC(=O)[C@H](CC(C)C)NC(=O)[C@H](CCCCN)NC(=O)[C@@H](NC(=O)[C@@H]1CCCN1C(=O)[C@H](NC(=O)[C@H](CC(=O)O)NC(=O)[C@H](CC(C)C)NC(=O)[C@H](CO)NC(=O)[C@H](CC(C)C)NC(=O)[C@@H](NC(=O)[C@@H](N)[C@@H](C)CC)C(C)C)C(C)C)[C@@H](C)O)C(=O)N[C@@H](CCC(N)=O)C(=O)N[C@@H](CCCCN)C(=O)N[C@@H](CC(C)C)C(=O)N[C@@H](CC(C)C)C(=O)N[C@@H](CCCCN)C(=O)N[C@@H](CCC(N)=O)C(=O)N[C@@H](CCC(=O)O)C(=O)N[C@@H](CCCNC(=N)N)C(=O)N[C@@H](CCC(N)=O)C(=O)N[C@@H](CCCNC(=N)N)C(=O)N[C@@H](CCCCN)C(=O)N[C@@H](CCC(=O)O)C(=O)N[C@@H](CCCNC(=N)N)C(=O)N[C@@H](CCC(=O)O)C(=O)N[C@@H](CCC(N)=O)C(=O)N[C@@H](C)C(=O)N[C@@H](CCC(=O)O)C(=O)N[C@@H](CCCCN)C(=O)N[C@@H](CC(N)=O)C(=O)N[C@@H](CCCCN)C(=O)N[C@@H](CCCNC(=N)N)C(=O)N[C@H](C(=O)N[C@@H](CC(C)C)C(=O)N[C@@H](CCC(=O)O)C(=O)N[C@@H](CCCNC(=N)N)C(=O)N[C@H](C(N)=O)C(C)C)[C@@H](C)CC)C(=O)O [compound 18] (H-IVLSLD[dV]PTKLK([γGlu-Palmitoyl])QKLLKQERQRKEREQAEKNKRILERV-NH2)	0.02 nM	> 10200 µg/mL	> 9300 µg/mL	0.03 nM			
CCCCCCCCCCCCCCCC(=O)N[C@@H](CCC(=O)NCCCC[C@H](NC(=O)[C@H](CC(C)C)NC(=O)[C@H](CCCCN)NC(=O)[C@@H](NC(=O)[C@@H]1CCCN1C(=O)[C@H](NC(=O)[C@H](CC(=O)O)NC(=O)[C@H](CC(C)C)NC(=O)[C@H](CO)NC(=O)[C@H](CC(C)C)NC(=O)[C@@H](NC(=O)[C@@H](N)[C@@H](C)CC)C(C)C)C(C)C)[C@@H](C)O)C(=O)N[C@@H](CCC(N)=O)C(=O)N[C@@H](CCCCN)C(=O)N[C@@H](CC(C)C)C(=O)N[C@@H](CC(C)C)C(=O)N[C@@H](CCCCN)C(=O)N[C@@H](CCC(N)=O)C(=O)N[C@@H](CCC(=O)O)C(=O)N[C@@H](CCCNC(=N)N)C(=O)N[C@@H](CCC(N)=O)C(=O)N[C@@H](CCCNC(=N)N)C(=O)N[C@@H](CCCCN)C(=O)N[C@@H](CCC(=O)O)C(=O)N[C@@H](CCCNC(=N)N)C(=O)N[C@@H](CCC(=O)O)C(=O)N[C@@H](CCC(N)=O)C(=O)N[C@@H](C)C(=O)N[C@@H](CCC(=O)O)C(=O)N[C@@H](CCCCN)C(=O)N[C@@H](CC(N)=O)C(=O)N[C@H](C(=O)N[C@@H](CCCNC(=N)N)C(=O)N[C@H](C(=O)N[C@@H](CC(C)C)C(=O)N[C@@H](CCC(=O)O)C(=O)N[C@@H](CCCNC(=N)N)C(=O)N[C@H](C(N)=O)C(C)C)[C@@H](C)CC)C(C)C)C(=O)O [compound 32] (H-IVLSLD[dV]PTKLK([γGlu-Palmitoyl])QKLLKQERQRKEREQAEKNVRILERV-NH2)				0.01 nM	8600 µg/mL (≈ 1730 µM)	> 1000 nM	27%
CC[C@H](C)[C@H](N)C(=O)N[C@H](C(=O)N[C@@H](CC(C)C)C(=O)N[C@@H](CO)C(=O)N[C@@H](CC(C)C)C(=O)N[C@@H](CC(=O)O)C(=O)N[C@H](C(=O)N1CCC[C@H]1C(=O)N[C@H](C(=O)N[C@@H](CCCCN)C(=O)N[C@@H](CC(C)C)C(=O)N[C@@H](CCCCNC(=O)COCCOCCNC(=O)COCCOCCNC(=O)CC[C@H](NC(=O)CCCCCCCCCCCCCCCCC(=O)O)C(=O)O)C(=O)N[C@@H](CCC(N)=O)C(=O)N[C@H](C(=O)N[C@@H](CC(C)C)C(=O)N[C@@H](CC(C)C)C(=O)N[C@@H](CCC(=O)O)C(=O)N[C@@H](CCC(N)=O)C(=O)N[C@@H](CCC(=O)O)C(=O)N[C@@H](CCCNC(=N)N)C(=O)N[C@@H](CCC(N)=O)C(=O)N[C@@H](CCCNC(=N)N)C(=O)N[C@@H](CCCCN)C(=O)N[C@@H](CCC(=O)O)C(=O)N[C@@H](CCCNC(=N)N)C(=O)N[C@@H](CCC(N)=O)C(=O)N[C@@H](CCC(N)=O)C(=O)N[C@@H](C)C(=O)N[C@@H](CCC(=O)O)C(=O)N[C@H](C(=O)N[C@@H](CC(N)=O)C(=O)N[C@@H](C)C(=O)N[C@@H](CCC(N)=O)C(=O)N[C@H](C(=O)N[C@@H](CC(C)C)C(=O)N[C@@H](C)C(=O)N[C@@H](CCC(N)=O)C(=O)N[C@H](C(N)=O)C(C)C)[C@@H](C)CC)[C@@H](C)O)[C@@H](C)CC)[C@@H](C)CC)C(C)C)C(C)C [compound 39] (H-IVLSLDVPIKLK([AEEA-AEEA-γGlu-C18 diacid])QILLEQERQRKERQQAETNAQILAQV-NH2)	2.04 nM			0.65 nM	10300 µg/mL (≈ 2000 µM)	> 1000 nM	13.3%
CC[C@H](C)[C@H](N)C(=O)N[C@H](C(=O)N[C@@H](CC(C)C)C(=O)N[C@@H](CO)C(=O)N[C@@H](CC(C)C)C(=O)N[C@@H](CC(=O)O)C(=O)N[C@H](C(=O)N1CCC[C@H]1C(=O)N[C@H](C(=O)N[C@@H](CCCCN)C(=O)N[C@@H](CC(C)C)C(=O)N[C@@H](CCCCNC(=O)COCCOCCNC(=O)COCCOCCNC(=O)CC[C@H](NC(=O)CCCCCCCCCCCCCCCCC(=O)O)C(=O)O)C(=O)N[C@@H](CCC(N)=O)C(=O)N[C@H](C(=O)N[C@@H](CC(C)C)C(=O)N[C@@H](CC(C)C)C(=O)N[C@@H](CCC(=O)O)C(=O)N[C@@H](CCC(N)=O)C(=O)N[C@@H](C)C(=O)N[C@@H](CCCCN)C(=O)N[C@@H](CCC(N)=O)C(=O)N[C@@H](CCCCN)C(=O)N[C@@H](CCCCN)C(=O)N[C@@H](CC(C)C)C(=O)N[C@@H](CCCNC(=N)N)C(=O)N[C@@H](C)C(=O)N[C@@H](CCC(N)=O)C(=O)N[C@@H](C)C(=O)N[C@@H](CCC(=O)O)C(=O)N[C@H](C(=O)N[C@@H](CC(N)=O)C(=O)N[C@H](C(=O)N[C@@H](CCCNC(=N)N)C(=O)N[C@H](C(=O)N[C@@H](CC(C)C)C(=O)N[C@@H](CCC(=O)O)C(=O)N[C@@H](CCCNC(=N)N)C(=O)N[C@H](C(N)=O)C(C)C)[C@@H](C)CC)C(C)C)[C@@H](C)O)[C@@H](C)CC)[C@@H](C)CC)C(C)C)C(C)C [compound 43] (H-IVLSLDVPIKLK([AEEA-AEEA-γGlu-C18 diacid])QILLEQAKQKKLRAQAETNVRILERV-NH2; N-terminus assumed)	11.5 nM			1.9 nM	> 9800 µg/mL		
